This assay addresses Human immunodeficiency virus type 1 protease (Human immunodeficiency virus 1, UniProt Q72874). Description: ChEBML_157558. The source says:
Inhibition of HIV-1 protease.

Molecules are shown by their SMILES.

In the case of `O=c1oc2c(c(O)c1C(c1cccc(CS(=O)(=O)c3ccccn3)c1)C1CC1)CCCCCC2` (configuration not stated) [3-{Cyclopropyl-[3-(pyridine-2-sulfonylmethyl)-phenyl]-methyl}-4-hydroxy-5,6,7,8,9,10-hexahydro-cycloocta[b]pyran-2-one], the Ki (commonly a dissociation constant, usually derived from enzyme kinetics or from competition with a known ligand) is 1.9 nM.
For `N#Cc1ccc(S(=O)(=O)Cc2cccc(C(c3c(O)c4c(oc3=O)CCCCCC4)C3CC3)c2)cc1` (configuration not stated) [4-{3-[Cyclopropyl-(4-hydroxy-2-oxo-5,6,7,8,9,10-hexahydro-2H-cycloocta[b]pyran-3-yl)-methyl]-phenylmethanesulfonyl}-benzonitrile], the affinity corresponds to a Ki of 1.9 nM. This counts as single-digit nanomolar.

These data come from BindingDB's records for doi:10.1016/S0960-894X(97)00031-0 (1997).
